In PubChem BioAssay AID2060336 (Molecular Pharmacology Branch, DTP, NCI, 2025):
Several values for one entry are separate records, joined by “and”; a condition that tells them apart may be missing. Identical values can stand only once.

Tested on: 958767-090-R-J1-PDC spheroid growth
Assay: Anticancer human tumor 958767-090-R-J1-PDC patient-derived head and neck squamous carcinoma cell line growth inhibition [IpAb]
Details: spheroids with HUVEC and MSC; for viability, T/C: stronger effect = lower value
Outline: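 Multi-cell spheroids of 60% tumour cells, 25% HUVEC and 15% MSC in ultra-low-attachment U-bottom wells, treated with agents combined with ipatasertib or abemaciclib. Half-log ranges top out near clinical Cmax, or 10 microM when Cmax is unknown.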

[1] = curve of first compound, second compound 0.1 µM
[2] = curve of first compound, second compound 0.316 µM
[3] = curve of first compound, second compound 1 µM
[4] = curve of first compound, second compound 3.16 µM
[5] = curve of first compound, second compound 10 µM
[6] = second compound 0.1 µM, first compound 0.0316 µM
[7] = second compound 0.1 µM, first compound 0.1 µM
[8] = second compound 0.316 µM, first compound 0.0316 µM
[9] = second compound 0.316 µM, first compound 0.1 µM
[10] = second compound 1 µM, first compound 0.0316 µM
[11] = second compound 1 µM, first compound 0.1 µM
[12] = second compound 3.16 µM, first compound 0.0316 µM
[13] = second compound 3.16 µM, first compound 0.1 µM
[14] = second compound 10 µM, first compound 0.0316 µM
[15] = second compound 10 µM, first compound 0.1 µM
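Note: spheroids exposed to agents for 7 days.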
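Throughout, for viability, T/C: 100% = DMSO vehicle control wells.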

`Cc1nc(NC(=O)N2CCCC2C(N)=O)sc1-c1ccnc(C(C)(C)C(F)(F)F)c1` (configuration not stated) + CC(C)NCC(C(=O)N1CCN(c2ncnc3c2C(C)CC3O)CC1)c1ccc(Cl)cc1 was tested, and the IC50 [1] was 136 nM, the IC50 [2] was 63.5 nM and the IC50 [3] was < 31.6 nM. For the same molecule, the IC50 [4] was < 31.6 nM, the IC50 [5] was < 31.6 nM and the viability, T/C [6] was 72.7%. It also gave a viability, T/C [7] of 49.6%, a viability, T/C (second compound 0.1 µM, first compound 0.316 µM) of 38.1% and a viability, T/C (second compound 0.1 µM, first compound 1 µM) of 34.2%. For the same molecule, the viability, T/C (second compound 0.1 µM, first compound 3.16 µM) was 20.7%, the viability, T/C (second compound 0.1 µM, first compound 10 µM) was 12.2% and the viability, T/C [8] was 54.4%. For the same molecule, the viability, T/C [9] was 49.1%, the viability, T/C (second compound 0.316 µM, first compound 0.316 µM) was 32.3% and the viability, T/C (second compound 0.316 µM, first compound 1 µM) was 26.7%. For the same molecule, the viability, T/C (second compound 0.316 µM, first compound 3.16 µM) was 16.2%, the viability, T/C (second compound 0.316 µM, first compound 10 µM) was 11.1% and the viability, T/C [10] was 46.6%. The viability, T/C [11] was 32.7%, the viability, T/C (second compound 1 µM, first compound 0.316 µM) was 30.9% and the viability, T/C (second compound 1 µM, first compound 1 µM) was 20.9%. For the same molecule, the viability, T/C (second compound 1 µM, first compound 3.16 µM) was 15.6%, the viability, T/C (second compound 1 µM, first compound 10 µM) was 9.52% and the viability, T/C [12] was 38.4%. It also gave a viability, T/C [13] of 28.4%, a viability, T/C (second compound 3.16 µM, first compound 0.316 µM) of 24.2% and a viability, T/C (second compound 3.16 µM, first compound 1 µM) of 18.3%. It also gave a viability, T/C (second compound 3.16 µM, first compound 3.16 µM) of 14.4%, a viability, T/C (second compound 3.16 µM, first compound 10 µM) of 7.8% and a viability, T/C [14] of 31.6%. For the same molecule, the viability, T/C [15] was 24.6%, the viability, T/C (second compound 10 µM, first compound 0.316 µM) was 16.5% and the viability, T/C (second compound 10 µM, first compound 1 µM) was 10.8%. It also gave a viability, T/C (second compound 10 µM, first compound 3.16 µM) of 9.96% and a viability, T/C (second compound 10 µM, first compound 10 µM) of 5.52%.

With `Cn1ncnc1[C@H]1c2n[nH]c(=O)c3cc(F)cc(c23)N[C@@H]1c1ccc(F)cc1` + CC(C)NCC(C(=O)N1CCN(c2ncnc3c2C(C)CC3O)CC1)c1ccc(Cl)cc1 the IC50 [1] was > 100 nM, the IC50 [2] was > 100 nM and the IC50 [3] was > 100 nM. The IC50 [4] was > 100 nM, the IC50 [5] was 51.3 nM and the viability, T/C (second compound 0.1 µM, first compound 0.000316 µM) was 91.5%. It also gave a viability, T/C (second compound 0.1 µM, first compound 0.001 µM) of 87.8%, a viability, T/C (second compound 0.1 µM, first compound 0.00316 µM) of 91.2% and a viability, T/C (second compound 0.1 µM, first compound 0.01 µM) of 83.7%. It also gave a viability, T/C [6] of 87.4%, a viability, T/C [7] of 73% and a viability, T/C (second compound 0.316 µM, first compound 0.000316 µM) of 70%. It also gave a viability, T/C (second compound 0.316 µM, first compound 0.001 µM) of 77.4%, a viability, T/C (second compound 0.316 µM, first compound 0.00316 µM) of 74.7% and a viability, T/C (second compound 0.316 µM, first compound 0.01 µM) of 86.8%. The viability, T/C [8] was 77.6%, the viability, T/C [9] was 65.8% and the viability, T/C (second compound 1 µM, first compound 0.000316 µM) was 69.5%. The viability, T/C (second compound 1 µM, first compound 0.001 µM) was 63.9%, the viability, T/C (second compound 1 µM, first compound 0.00316 µM) was 72.2% and the viability, T/C (second compound 1 µM, first compound 0.01 µM) was 74.2%. For the same molecule, the viability, T/C [10] was 62.4%, the viability, T/C [11] was 56.4% and the viability, T/C (second compound 3.16 µM, first compound 0.000316 µM) was 65%. For the same molecule, the viability, T/C (second compound 3.16 µM, first compound 0.001 µM) was 52.6%, the viability, T/C (second compound 3.16 µM, first compound 0.00316 µM) was 58.8% and the viability, T/C (second compound 3.16 µM, first compound 0.01 µM) was 70.2%. It also gave a viability, T/C [12] of 62.4%, a viability, T/C [13] of 59.3% and a viability, T/C (second compound 10 µM, first compound 0.000316 µM) of 63.3%. For the same molecule, the viability, T/C (second compound 10 µM, first compound 0.001 µM) was 55.3%, the viability, T/C (second compound 10 µM, first compound 0.00316 µM) was 58.1% and the viability, T/C (second compound 10 µM, first compound 0.01 µM) was 58.4%. For the same molecule, the viability, T/C [14] was 56% and the viability, T/C [15] was 42%.

With `Cn1cnc2c(F)c(Nc3ccc(Br)cc3Cl)c(C(=O)NOCCO)cc21` + CC(C)NCC(C(=O)N1CCN(c2ncnc3c2C(C)CC3O)CC1)c1ccc(Cl)cc1 the IC50 [1] was 18.2 nM, the IC50 [2] was < 9.49 nM and the IC50 [3] was < 9.49 nM. For the same molecule, the IC50 [4] was < 9.49 nM, the IC50 [5] was < 9.49 nM and the viability, T/C (second compound 0.1 µM, first compound 0.00949 µM) was 62%. The viability, T/C (second compound 0.1 µM, first compound 0.03 µM) was 38.9%, the viability, T/C (second compound 0.1 µM, first compound 0.0949 µM) was 30.5% and the viability, T/C (second compound 0.1 µM, first compound 0.3 µM) was 20.8%. It also gave a viability, T/C (second compound 0.1 µM, first compound 0.949 µM) of 17.7%, a viability, T/C (second compound 0.1 µM, first compound 3 µM) of 9.06% and a viability, T/C (second compound 0.316 µM, first compound 0.00949 µM) of 36%. The viability, T/C (second compound 0.316 µM, first compound 0.03 µM) was 26.8%, the viability, T/C (second compound 0.316 µM, first compound 0.0949 µM) was 19.2% and the viability, T/C (second compound 0.316 µM, first compound 0.3 µM) was 14.3%. For the same molecule, the viability, T/C (second compound 0.316 µM, first compound 0.949 µM) was 9.47%, the viability, T/C (second compound 0.316 µM, first compound 3 µM) was 3.29% and the viability, T/C (second compound 1 µM, first compound 0.00949 µM) was 28.1%. The viability, T/C (second compound 1 µM, first compound 0.03 µM) was 21.7%, the viability, T/C (second compound 1 µM, first compound 0.0949 µM) was 15.2% and the viability, T/C (second compound 1 µM, first compound 0.3 µM) was 10.1%. It also gave a viability, T/C (second compound 1 µM, first compound 0.949 µM) of 4.39%, a viability, T/C (second compound 1 µM, first compound 3 µM) of 1.34% and a viability, T/C (second compound 3.16 µM, first compound 0.00949 µM) of 30.4%. For the same molecule, the viability, T/C (second compound 3.16 µM, first compound 0.03 µM) was 18.6%, the viability, T/C (second compound 3.16 µM, first compound 0.0949 µM) was 10.1% and the viability, T/C (second compound 3.16 µM, first compound 0.3 µM) was 6.15%. For the same molecule, the viability, T/C (second compound 3.16 µM, first compound 0.949 µM) was 1.7%, the viability, T/C (second compound 3.16 µM, first compound 3 µM) was 0.65% and the viability, T/C (second compound 10 µM, first compound 0.00949 µM) was 21.7%. For the same molecule, the viability, T/C (second compound 10 µM, first compound 0.03 µM) was 9.62%, the viability, T/C (second compound 10 µM, first compound 0.0949 µM) was 4.16% and the viability, T/C (second compound 10 µM, first compound 0.3 µM) was 1.43%. For the same molecule, the viability, T/C (second compound 10 µM, first compound 0.949 µM) was 0.55% and the viability, T/C (second compound 10 µM, first compound 3 µM) was 0.67%.

For `CC(C)n1nc(-c2ccc3oc(N)nc3c2)c2c(N)ncnc21`, the viability, T/C (compound 0.000316 µM) was 84.9% and 95.3%, the viability, T/C (compound 0.001 µM) was 89.9% and 94.5% and the viability, T/C (compound 0.00316 µM) was 74.5% and 73.8%. For the same molecule, the viability, T/C (compound 0.01 µM) was 55.9% and 54.9%, the viability, T/C (compound 0.0316 µM) was 36.9% and 34.2% and the viability, T/C (compound 0.1 µM) was 39.7% and 32.1%. The IC50 (curve of compound) was 13.9 nM and 11.9 nM.
